Experimental data as given in patent US9883671B2, “Mixture of natural or nature-identical alcohols with improved effectiveness” (L'AIR LIQUIDE, SOCIETE ANONYME POUR L'ETUDE ET …, priority 2012, dated 2018).

Test system: inoculation solution of test organisms: Staphylococcus aureus, Kocuria rhizophila, Enterobacter gergoviae, Escherichia coli, Klebsiella pneumoniae, Pseudomonas …
Test: Determination of the preserving effect of chemical preservatives in cosmetic formulations (Koko test), Carbopol gel
Assay type: cell-based, bacteria, yeast and moulds (mixed inoculum, ATCC strains)
Conditions: 0.1% by weight; inferred from Experiment 9 compared with Experiment 2
Procedure: Method A—Determination of the Preserving Effect of Chemical Preservatives in Cosmetic Formulations (Koko Test) The test described below is carried out to determine the preserving effect of chemical preservatives in cosmetic formulations. Using the described method, the aim is to test the effectiveness of chemical preservatives with regard to the pack preservation for cosmetic formulations. For this purpose, the preservatives to be tested are added in various concentrations to the unpreserved samples in different experimental batches. A continuous microbial burden is achieved by periodically inoculating the experimental batches. In parallel to the inoculation, streaks of the individual batches are in each case made immediately beforehand. Assessment is made by reference to the microbial growth of the streaks. […] In each case, 25 g of the cosmetic to be tested are weighed into wide-necked bottles with screw closure (LDPE). […] The preserving effect of the individual product concentrations is assessed in a semi-quantitative method by means of the growth of the individual streaks. […] The sample is well-preserved according to criterion A if it exists under the laboratory conditions given above for a period of six weeks without microbial attack of the sample batches, i.e. no microbial growth can be detected even after the sixth inoculation. […]

SMILES: CCCCCCCCCCCO [Experiment 1-undecanol, 1-undecanol]
- Preserving effect of the substance by itself, inferred: no effect
